Active and inactive are the calls of the source.
What was measured:
[1] = target: Beta-lactamase TEM (Bacteria) (UniProt P62593); assay: Inhibition of recombinant N-terminal His-tagged Escherichia coli TEM1 (24 to 286 residues) expressed in Escherichia coli BL21(DE3) at 200 uM using FC5 as substrate
[2] = target: Beta-lactamase CTX-M (Escherichia coli) (UniProt Q9EXV5); assay: Inhibition of recombinant Escherichia coli EO516 N-terminal His6-tagged CTX-M using FC5 as substrate at 200 uM preincubated at 10 to 300 mins followed by substrate addition
[3] = target: Beta-lactamase (Escherichia coli K-12) (UniProt P00811); assay: Inhibition of recombinant Escherichia coli AmpC at 200 uM using FC5 as substrate preincubated at 10 to 300 mins followed by substrate addition
[4] = target: Beta-lactamase OXA-10 (Pseudomonas aeruginosa) (UniProt P14489); assay: Inhibition of recombinant Pseudomonas aeruginosa OXA-10 at 200 uM using FC5 as substrate

Measured: inhibition

Sequence of Beta-lactamase OXA-10 (Pseudomonas aeruginosa) (P14489 whole entry): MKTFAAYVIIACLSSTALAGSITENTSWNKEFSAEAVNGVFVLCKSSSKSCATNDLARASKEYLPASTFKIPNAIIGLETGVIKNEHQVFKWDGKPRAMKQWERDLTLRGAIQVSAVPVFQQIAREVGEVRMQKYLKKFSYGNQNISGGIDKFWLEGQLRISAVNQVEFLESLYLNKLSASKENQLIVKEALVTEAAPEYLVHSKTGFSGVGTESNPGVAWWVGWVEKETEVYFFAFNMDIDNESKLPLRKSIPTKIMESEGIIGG
Sequence of Beta-lactamase TEM (Bacteria) (P62593 whole entry, the tested form may be a part): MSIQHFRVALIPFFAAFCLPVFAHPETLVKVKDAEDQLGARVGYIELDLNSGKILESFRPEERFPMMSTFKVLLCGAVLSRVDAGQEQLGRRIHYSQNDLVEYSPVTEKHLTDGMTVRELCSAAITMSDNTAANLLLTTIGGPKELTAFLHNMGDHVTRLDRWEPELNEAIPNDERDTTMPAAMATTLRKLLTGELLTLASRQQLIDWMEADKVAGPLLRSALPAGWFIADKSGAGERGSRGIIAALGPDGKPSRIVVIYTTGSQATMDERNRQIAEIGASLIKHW
Sequence of Beta-lactamase (Escherichia coli K-12) (P00811 whole entry): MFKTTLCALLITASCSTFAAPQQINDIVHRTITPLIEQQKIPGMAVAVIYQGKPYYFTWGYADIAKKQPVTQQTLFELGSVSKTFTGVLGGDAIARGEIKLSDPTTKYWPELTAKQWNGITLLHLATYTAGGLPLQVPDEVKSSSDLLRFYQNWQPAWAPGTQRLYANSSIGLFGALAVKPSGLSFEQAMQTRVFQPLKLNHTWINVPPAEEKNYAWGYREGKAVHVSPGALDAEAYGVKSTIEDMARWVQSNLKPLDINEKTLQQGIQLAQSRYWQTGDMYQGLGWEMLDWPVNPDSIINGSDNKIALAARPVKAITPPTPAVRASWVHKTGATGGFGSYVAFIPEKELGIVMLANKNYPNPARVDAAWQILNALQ

CN1CCN(NC(=O)CN2C(=O)/C(=C/c3cc(Cl)ccc3Cl)SC2=S)CC1
inactive: all assays above

O=C(O)CN1C(=O)/C(=C/c2ccccc2)SC1=S
inactive: all assays above

Cc1cccc(C)c1/C=C1\SC(=S)N(CC(=O)O)C1=O
inactive: all assays above

O=C(O)CN1C(=O)/C(=C/c2ccc(Br)cc2)SC1=S
inactive: all assays above

O=C(O)/C(S)=C/c1c(Cl)ccc(Cl)c1Cl
inactive: all assays above

O=C(O)/C(S)=C/c1c(F)ccc(F)c1F
inactive: all assays above

O=C(O)CN1C(=O)/C(=C/c2cc(Cl)ccc2Cl)SC1=S
inactive: all assays above

CN1CCN(NC(=O)CN2C(=O)/C(=C/c3ccccc3F)SC2=S)CC1
inactive: all assays above

O=C(O)CN1C(=O)/C(=C/c2c(Cl)cccc2Cl)SC1=S
inactive: all assays above

COc1ccc(/C=C2\SC(=S)N(CC(=O)NN3CCN(C)CC3)C2=O)cc1
inactive: all assays above

O=C(O)/C(S)=C/c1ccccc1Br
inactive: all assays above

CN1CCN(NC(=O)CN2C(=O)/C(=C/c3ccccc3Cl)SC2=S)CC1
inactive: all assays above

O=C(O)/C(S)=C/c1cccc(Cl)c1Cl
inactive: all assays above

O=C(O)CN1C(=O)/C(=C/c2c(F)ccc(F)c2F)SC1=S
inactive: all assays above

O=C(O)CN1C(=O)/C(=C/c2c(F)cccc2F)SC1=S
inactive: all assays above

O=C(O)/C(S)=C/c1ccccc1Cc1ccc2ccccc2c1
inactive: all assays above

COc1ccc(/C=C2\SC(=S)N(CC(=O)O)C2=O)cc1
inactive: all assays above

O=C(O)/C(S)=C/c1ccccc1
inactive: all assays above

Cc1ccc(/C=C2\SC(=S)N(CC(=O)NN3CCN(C)CC3)C2=O)cc1
inactive: all assays above

O=C(O)CN1C(=O)/C(=C/c2cccc(Cl)c2Cl)SC1=S
inactive: all assays above

CN1CCN(NC(=O)CN2C(=O)/C(=C/c3c(F)cccc3F)SC2=S)CC1
inactive: all assays above

O=C(O)CN1C(=O)/C(=C/c2ccccc2Br)SC1=S
inactive: all assays above

Cc1cccc(C)c1/C=C1\SC(=S)N(CC(=O)NN2CCN(C)CC2)C1=O
inactive: all assays above

Cc1ccc(/C=C2\SC(=S)N(CC(=O)O)C2=O)cc1
inactive: all assays above

CN1CCN(NC(=O)CN2C(=O)/C(=C/c3ccc(F)cc3)SC2=S)CC1
inactive: all assays above

O=C(O)/C(S)=C/c1ccccc1F
inactive: all assays above

O=C(O)CN1C(=O)/C(=C/c2ccc(F)cc2)SC1=S
inactive: all assays above

O=C(O)/C(S)=C/c1c(F)cccc1Cl
inactive: all assays above

O=C(O)/C(S)=C/c1c(Cl)cccc1Cl
inactive: all assays above

O=C(O)/C(S)=C/c1ccccc1Cl
inactive: all assays above

O=C(O)CN1C(=O)/C(=C/c2ccccc2F)SC1=S
inactive: all assays above

O=C(O)CN1C(=O)/C(=C/c2csc3ccccc23)SC1=S
inactive: all assays above

CN1CCN(NC(=O)CN2C(=O)/C(=C/c3ccccc3)SC2=S)CC1
inactive: all assays above

O=C(O)/C(S)=C/c1c(F)cccc1F
inactive: all assays above

CN1CCN(NC(=O)CN2C(=O)/C(=C/c3cccc(Cl)c3Cl)SC2=S)CC1
inactive: all assays above

Cc1ccc(/C=C(\S)C(=O)O)cc1
inactive: all assays above

CN1CCN(NC(=O)CN2C(=O)/C(=C/c3c(F)cccc3Cl)SC2=S)CC1
inactive: all assays above

CN1CCN(NC(=O)CN2C(=O)/C(=C/c3csc4ccccc34)SC2=S)CC1
inactive: all assays above

O=C(O)/C(S)=C/c1csc2ccccc12
inactive: all assays above
